Consider one compound from patent EP4741397A1, “FUSED TRICYCLIC COMPOUND, AND PREPARATION METHOD THEREFOR AND USE THEREOF” (Shenzhen Zhongge Biological Technology Co., Ltd., priority 2023, dated 2025).

Data set [1] in a line: Kinetic solubility evaluation. Conditions: pbs, pH 7.4, aqueous buffer. The data set is classed as physicochemical. As to the method: 10 mM stock solution was prepared by dissolving the test compound in DMSO. 100 mM K2HPO4 solution was prepared by adding 8.71 g K2HPO4 to 500 mL deionized water. 100 mM KH2PO4 solution was prepared by adding 2.05 g KH2PO4 to 150 mL deionized water. 405 mL of 100 mM K2HPO4 and 95 mL of 100 mM KH2PO4 were mixed and adjusted to pH 7.4 with 100 mM K2HPO4/KH2PO4 solution.
16 µL of 10 mM compound stock solution was added to 784 µL of PBS buffer (n = 3) by 96 well plate, and the plate was sealed and shaken at 25°C, 1000 rpm for 1.5 h. After incubation, the solution was transferred to a filter plate. All samples were filtered. 5 µL of the filtrate was taken, added to 5 µL of DMSO and 490 µL acetonitrile aqueous solution containing internal standard (1:1) and mixed. Then the mixed solution was diluted with acetonitrile aqueous solution containing internal standard (1:1) according to the properties of the compound and its response in the mass spectrometer. The dilution factor was adjusted according to the solubility value and UPLC-MS/MS signal response.

Data set [2] is described as follows: In vivo brain permeability (plasma and cerebrospinal fluid PK). Conditions: CD1 mice, PO 10 mg/kg; for AUC(0-inf) / Cmax / Tmax / half-life: mouse. As for the experimental part:
The test compound was dissolved in the vehicle to prepare a clear solution or a homogeneous suspension. Three mice (CD1 mice) per group were orally administered (PO) at 10 mg/kg. Plasma and cerebrospinal fluid were collected at 1 h, 4 h, and 8 h after oral administration and quantitatively analyzed by LC/MS/MS. Conclusion: At least some of the compounds of the present application have reached very high levels of Cmax and AUC in cerebrospinal fluid and have good in vivo brain permeability. […] Table 7 Plasma and cerebrospinal fluid PK of compound 25

In a further data set the test system is mouse primary neurons. Kind of data set: Neuronal injury model based on mouse primary neurons (axotomy, TUJ1 staining). The conditions noted are these: 0.3 µM, compared with the control I-5; axotomy at DIV 10, Figure 1. In kind it is cell-based. As to the method: Methods: Neocortices were dissected from the brains of newborn mice at DIV 0 (Day In Vitro 0), digested with 0.05% (w/v) trypsin/EDTA, and incubated at 37°C for 10 min. Neuronal cells obtained after digestion were seeded in cell culture dishes preincubated with poly-D-lysine in Neurobasal/B-27 medium (Neurobasal medium supplemented with 1% (v/v) B-27, 2 mM glutamine, 100 U/ml penicillin, and […] streptomycin). Starting from DIV 3, a half of the medium was replaced with fresh Neurobasal/B-27 medium every two days. At DIV 10, the cultures were subjected to axotomy and compound administration. The cells were fixed with 4% paraformaldehyde the day after axotomy and subjected to cell immunofluorescence staining for TUJ1. Confocal imaging of axons was performed using a Zeiss LSM710 laser confocal microscope.

As a reminder, the solubility is how much of the substance goes into solution per volume. One may read the AUC(0-inf) as the area under the concentration-time curve extrapolated to infinity. A low value points to less exposure. The term Cmax denotes the peak of the concentration-time curve. By Tmax is commonly meant the time from dosing to the highest level. As usually defined, the half-life is the time in which the quantity being followed falls by half. High values mean slow loss, low ones fast loss. As for `O=C1C(Cc2ccc(Cl)c(F)c2)CCCN1c1nc2c([nH]1)COc1cnccc1-2` (centres unmarked) [Cpd. 25], the solubility at […] in data set [1] is > 50 µg/mL. Further, the AUCbrain/AUCplasma in data set [2] is reported as 0.71. In addition, in data set [2] (Cerebrospinal fluid PK), the total exposure AUC(0-inf) stood at 6900 ng·h/mL, the highest level (Cmax) was 2200 ng/mL, the Tmax was determined as 1 h and the half-life is 1.41 h. In data set [2] (Plasma PK), the area under the curve AUC(0-inf) was 9700 ng·h/mL, the highest level (Cmax) was 3090 ng/mL, the Tmax is 1 h and the half-life is 1.4 h. For the same compound, the “neuron-protecting activity (axonal loss after axonal injury)” value in the data set on mouse primary neurons is “stronger neuron-protecting activity”.
